Holding throughout (assay type): in vivo
The test system of one experiment is Helicoverpa armigera. Description: Diet incorporation method against Helicoverpa armigera (Example A). The conditions noted are these: 96 h. The source says:
(§1) In which E represents the expected percentage of inhibition of the pests for the combination of two insecticides or one insecticide and one fungicide at defined doses (for example equal to x and y respectively), x is the percentage of inhibition observed for the pest/disease by the compound (1) at a given dose (equal to x), y is the percentage of inhibition observed for the pest/disease by the compound (2) or (3) at a defined dose (equal to y). When the percentage of inhibition observed for the combination is greater than E, there is a synergistic effect.
The diet incorporation method was used, in which semi-synthetic diet was incorporated into the test solutions consisting either of the single compounds or respective compound combinations, when the temperature was approximately 50° C. in the bio-assay containers, then stirred thoroughly for proper mixing and allowed to cool for 30 min. The solidified diet was cut into equal pieces, and then each piece was transferred into one cell of a bio-assay tray. A single starved third instar larva was released into each of these cells of the bio-assay trays and the tray was covered with a lid. The bio-assay trays were kept under laboratory conditions at a temperature of 25° C. and relative humidity of 70%. Observations on dead, moribund and live larvae were recorded 96 h after the release of the larvae. Percent mortality was calculated by combining dead and moribund larvae and comparing the result to the one of the untreated control. The results are shown for the compound of formula (I-1) in Table A.

The subject of another experiment is Spodoptera litura. Description: Diet incorporation method against Spodoptera litura (Example B). The conditions noted are these: 96 h; for pest or weed control at 10 ppm: read-out: Observed Efficacy (%), 10 ppm.
Excerpt: as §1
The diet incorporation method was used, in which semi-synthetic diet was incorporated into the test solution consisting either of the single compound or respective compound combinations, when the temperature was approximately 50° C. in the bioassay containers, then stirred thoroughly for proper mixing and allowed to cool for 30 min. The solidified diet was cut into equal pieces, and then each piece was transferred into one cell of the bio-assay trays. A single starved third instar larva was released into each of these cells of the bio-assay trays and the tray was covered with a lid. The bio-assay trays were kept under laboratory conditions at a temperature of 25° C. and relative humidity of 70%. Observations on dead, moribund and live larvae were recorded 96 h after the release. Percent mortality was calculated by combining dead and moribund larvae and comparing the result with the one of the untreated control. The results are shown for the compound of formula (I-1) in Table B.

The next experiment has as its system Plutella xylostella. Kind of experiment: Leaf dip method (cabbage) against Plutella xylostella (Example C). The conditions noted are these: 72 h.
Excerpt: as §1
The leaf dip method was used, wherein the required quantity of the compound or respective compound combinations were weighed and dissolved in a test solution prepared in tubes. The tubes were put on a vortex at 2000 rpm for 90 min for proper mixing and then diluted with a 0.01% Triton-X solution to the desired test concentration. Cabbage leaves were dipped into the solution for 10 seconds, shade dried for 20 min and then transferred to single cells of bioassay trays. A single second instar larva was released into each cell and the tray was covered with a lid. The bio-assay trays were kept under laboratory conditions at a temperature of 25° C. and relative humidity of 70%. Observations on dead, moribund and live larvae were recorded 72 h after the release. Percent mortality was calculated by combining dead and moribund larvae and comparing the result with the one of the untreated control. The results are shown for compound of formula (I-1) in Table C.

A further experiment has as its system Erysiphe cichoracearum. Kind of experiment: Preventive glasshouse test against Erysiphe cichoracearum in cucumber (Example K). Particulars: 50 ppm, preventive spray.
Excerpt: as §1
The single compounds or the respective compound combinations were dissolved in 2% dimethyl sulfoxide/acetone and then mixed with water containing emulsifier to a calibrated spray volume of 50 mL. The test solutions were poured into spray bottles for further applications. […]
A visual assessment of the performance of the compounds and the respective compound combinations was carried out by rating the disease severity (0-100% scale) on treated plants 3, 7, 10 and 15 days after application. Efficacy (% control) of the single compounds or compound combinations was calculated by comparing the disease rating in the treatment with the one of the untreated control. The compounds were also assessed for their plant compatibility by recording symptoms like necrosis, chlorosis and stunting. […]

The test system of another experiment is Alternaria solani. Kind of experiment: Preventive glasshouse test against Alternaria solani in tomato (Example G). Particulars: 100 ppm, preventive spray.
Excerpt: as §1
(§2) The single compounds or respective compound combinations were dissolved in 2% dimethyl sulfoxide/acetone and then mixed with water containing emulsifier to a calibrated spray volume of 50 mL. The test solutions were poured into spray bottles for further applications.
To test the preventive activity, healthy young tomato plants, raised in the greenhouse, were sprayed with the active compound preparation at the stated application rates inside the spray cabinets using hollow cone nozzles. One day after treatment, the plants were inoculated with a spore suspension containing 0.24×10^6 Alternaria solani inoculum and 2% Malt. The inoculated plants were then kept in a greenhouse chamber at a temperature of 22-24° C. and 90-95% relative humidity for disease expression.
A visual assessment of the performance of the single compounds or compound combinations was carried out by rating the disease severity (0-100% scale) on treated plants 3, 7, 10 and 15 days after application. Efficacy (% control) of the single compounds and mixtures was calculated by comparing the disease rating in the treatment with the one of the untreated control. The compounds were also assessed for their plant compatibility by recording symptoms like necrosis, chlorosis and stunting. The results have been described for the compound of formula (I-1) in Table G.

The test system of the next experiment is Phakopsora pachyrhizi. Description: Preventive glasshouse test against Phakopsora pachyrhizi in soybean (Example H). The conditions noted are these: preventive spray.
Excerpt: as §1
The single compounds or the respective compound combinations were dissolved in 2% dimethyl sulfoxide/acetone and then mixed with water containing an emulsifier to a calibrated spray volume of 50 ml. The test solutions were poured into spray bottles for further applications.
To test the preventive activity of compounds, healthy young Soybean plants, raised in the greenhouse, were sprayed with the active compound preparation at the stated application rates inside the spray cabinets using hollow cone nozzles. One day after treatment, the plants were inoculated with a suspension containing 2×10^5 Phakopsora pachyrhizi conidia. The inoculated plants were then kept in a greenhouse chamber at a temperature of 22-24° C. and 80-90% relative humidity for disease expression.
A visual assessment of the performance of the single compounds and respective compound combinations was carried out by rating the disease severity (0-100% scale) on treated plants 3, 7, 10 and 15 days after application. Efficacy (% control) of the compounds was calculated by comparing the disease rating in the treatment with the one of the untreated control. The compounds were also assessed for their plant compatibility by recording symptoms like necrosis, chlorosis and stunting. The results have been described for the compound of formula (I-1) in Table H.

The test system of experiment [1] is Parastagonospora nodorum/Septoria nodorum/Stagnospora nodorum. Description: Preventive glasshouse test against Septoria nodorum in wheat (Example J). The conditions noted are these: preventive spray.
Excerpt: as §1, §2
[…] One day after treatment, the plants were inoculated with a spore suspension containing 2.8×10^6 Stagnospora nodorum inoculum.
The inoculated plants were then kept in a greenhouse chamber at 22-25° C. temperature and 90-100% relative humidity for disease expression.
A visual assessment of the performance of the single compounds or compound combinations was carried out by rating the disease severity (0-100% scale) on treated plants 3, 7, 10 and 15 days after application. Efficacy (% control) of the single compounds and mixtures was calculated by comparing the disease rating in the treatment with the one of the untreated control. The compounds were also assessed for their plant compatibility by recording symptoms like necrosis, chlorosis and stunting. The results have been described for the compound of formula (I-1) in Table J.

The mark [2] stands for this setting: Helicoverpa armigera, read-out: Observed Efficacy (%).
Where [3] appears, read: Plutella xylostella, foliar, read-out: Observed Efficacy (%).

The values below come from patent publication US20230276803A1, “A PESTICIDALLY ACTIVE MIXTURE COMPRISING THIETANYLOXY COMPOUND, OXIDES OR SALTS THEREOF” (PI INDUSTRIES LTD., priority 2020, published 2023).

Read-outs that look alike come from different tables or passages of the source.

For the compound `COC(=O)N(OC)c1ccccc1COc1ccn(-c2ccc(Cl)cc2)n1` [Pyraclostrobin, pyraclostrobin], the pest or weed control at 200 ppm turned out to be 0% with Helicoverpa armigera (setting [2]) and 0% in the experiment on Spodoptera litura (read-out: Observed Efficacy (%), 200 ppm). The pest or weed control at 500 ppm in the experiment with Helicoverpa armigera (Helicoverpa armigera, 500 ppm, read-out: Observed Efficacy (%)) was found to be 0%; in the experiment on Spodoptera litura (read-out: Observed Efficacy (%), 500 ppm), 0%. For `O=[N+]([O-])NC1=NCCN1Cc1ccc(Cl)nc1` [Imidacloprid, imidacloprid], the pest or weed control at 0.1 ppm with Plutella xylostella (setting [3]) was 0%. Besides, the pest or weed control at 50 ppm with Spodoptera litura (read-out: Observed Efficacy (%), 50 ppm) came to 25%. With `C=CCOC1=NS(=O)(=O)c2ccccc21` [Probenazole, probenazole], in the experiment with Helicoverpa armigera (setting [2]), the pest or weed control at 200 ppm is 12.5%. With `COC(=O)NC(=S)Nc1ccccc1NC(=S)NC(=O)OC` [Thiophanate-methyl, thiophanate-methyl], the “Observed Efficacy (%)” value with Erysiphe cichoracearum is 29%. Regarding `CCc1nc2cc(C)c(Oc3ccc(OC(F)(F)F)cc3)cc2c(OC(=O)OC)c1C` [Flometoquin, flometoquin], the figures for the “Observed Efficacy (%)” value with Plutella xylostella (0.001 ppm) and with Plutella xylostella (0.005 ppm) were 0% and 62.5%, respectively. Consider `CCOCn1c(-c2ccc(Cl)cc2)c(C#N)c(Br)c1C(F)(F)F` [Chlorfenapyr, chlorfenapyr], for which the pest or weed control at 0.15 ppm in the experiment on Plutella xylostella (Plutella xylostella, foliar, 0.15 ppm, read-out: Observed Efficacy (%)) was 62.5%. Moreover, the pest or weed control at 0.2 ppm with Plutella xylostella (Plutella xylostella, foliar, 0.2 ppm, read-out: Observed Efficacy (%)) amounted to 75%.

On to `CCN(C(=O)CCSCCC(F)(F)F)c1cn(-c2cccnc2)nc1Cl` [Tyclopyrazoflor], for which, in the experiment on Helicoverpa armigera (100 ppm), the “Observed Efficacy (%)” value came out at 12.5%. In the case of `CCS(=O)(=O)c1cccnc1-c1nc2cc(S(=O)(=O)C(F)(F)F)ccc2o1` [Oxazosulfyl, 2-[3-(ethanesulfonyl)pyridin-2-yl]-5-[trifluoro(methanesulfonyl)]-1,3-benzoxazole], in the experiment with Plutella xylostella (setting [3]), the pest or weed control at 0.1 ppm was found to be 0%. Moreover, the pest or weed control at 100 ppm in the experiment with Spodoptera litura (100 ppm, read-out: Observed Efficacy (%)) came to 0%. Turning to `FC(F)(F)c1ccc(OCCCOc2c(Cl)cc(OCC=C(Cl)Cl)cc2Cl)nc1` [Pyridalyl, pyridalyl], the pest or weed control at 0.002 ppm with Plutella xylostella (Plutella xylostella, foliar, 0.002 ppm, read-out: Observed Efficacy (%)) was found to be 50%. In the case of `COCC(=O)N(c1c(C)cccc1C)C(C)C(=O)OC` (stereo not shown) [Metalaxyl, metalaxyl], the “Observed Efficacy (%)” value in the experiment with Alternaria solani stood at 17%. Besides, the pest or weed control at 100 ppm in the experiment on Spodoptera litura (read-out: Observed Efficacy (%), 100 ppm) was 0%. Turning to `Cn1cc(C(=O)Nc2ccccc2-c2cc(F)c(F)c(F)c2)c(C(F)F)n1` [Fluxapyroxad, fluxapyroxad], the “Observed Efficacy (%)” value in the experiment on Phakopsora pachyrhizi (0.05 ppm) is given as 41%. For `CC1=NNC(=O)N(/N=C/c2cccnc2)C1` [Pymetrozine, pymetrozine], in the experiment with Plutella xylostella (Plutella xylostella, foliar, 0.01 ppm, read-out: Observed Efficacy (%)), the pest or weed control at 0.01 ppm was 0%. Further, the pest or weed control at 0.05 ppm with Plutella xylostella (setting [3]) was 0%. As for spinetoram, the “Observed Efficacy (%)” value in the experiment with Helicoverpa armigera (2.5 ppm) is reported as 87.5%. With `N#Cc1c[nH]cc1-c1cccc2c1OC(F)(F)O2` [Fludioxonil, fludioxonil], the pest or weed control at 100 ppm in the experiment with Helicoverpa armigera (Helicoverpa armigera, 100 ppm, read-out: Observed Efficacy (%)) worked out at 0%. `CC(COc1ccc(Oc2ccccc2)cc1)Oc1ccccn1` (stereo not shown) [Pyriproxyfen]: the pest or weed control at 0.05 ppm in the experiment on Plutella xylostella (setting [3]) is 12.5%. On to `N#Cc1nn(-c2c(Cl)cc(C(F)(F)F)cc2Cl)c(N)c1[S+]([O-])C(F)(F)F` (stereo not shown) [Fipronil, fipronil], for which the pest or weed control at 0.005 ppm in the experiment on Plutella xylostella (Plutella xylostella, foliar, 0.005 ppm, read-out: Observed Efficacy (%)) came out at 50%. In the case of `CN1COCN(Cc2cnc(Cl)s2)/C1=N\[N+](=O)[O-]` [Thiamethoxam, thiamethoxam], in the experiment with Plutella xylostella (setting [3]), the pest or weed control at 1 ppm worked out at 12.5%. For the compound `N#Cc1ccc(CC(=NNC(=O)Nc2ccc(OC(F)(F)F)cc2)c2cccc(C(F)(F)F)c2)cc1` (mixture of isomers) [Metaflumizone, metaflumizone], the “Observed Efficacy (%)” value in the experiment on Plutella xylostella (0.001 ppm) was 12.5%. As to `CN/C(=N\[N+](=O)[O-])NCc1cnc(Cl)s1` [Clothianidin, clothianidin], the pest or weed control at 0.1 ppm with Plutella xylostella (setting [3]) stood at 0%. Besides, the pest or weed control at 10 ppm in the experiment with Spodoptera litura was 0%. As to `CO/C=C(/C(=O)OC)c1ccccc1Oc1cc(Oc2ccccc2C#N)ncn1` [Azoxystrobin, azoxystrobin], the “Observed Efficacy (%)” value in the experiment with Phakopsora pachyrhizi (0.1 ppm) turned out to be 39%; in experiment [1] (0.05 ppm), 12%; in experiment [1] (0.1 ppm) it was 24%. Turning to `Cc1c(COC(=O)[C@@H]2[C@H](/C=C(\Cl)C(F)(F)F)C2(C)C)cccc1-c1ccccc1` (racemic) [Bifenthrin, bifenthrin], the pest or weed control at 20 ppm in the experiment on Helicoverpa armigera (Helicoverpa armigera, 20 ppm, read-out: Observed Efficacy (%)) came out at 75%. For the same compound, the pest or weed control at 1 ppm with Plutella xylostella (setting [3]) was found to be 25%. Also, the pest or weed control at 10 ppm with Spodoptera litura was determined as 12.5%. For `CON=CNC(=O)c1ccc(C2=NOC(c3cc(Cl)cc(Cl)c3)(C(F)(F)F)C2)cc1C` (stereo not shown) [Fluxametamide, fluxametamide], the “Observed Efficacy (%)” value in the experiment with Helicoverpa armigera (0.13 ppm) and in the experiment with Helicoverpa armigera (0.28 ppm) was 12.5% in each case.
